From publication PMC10394516, “The pharmacokinetic profile of brensocatib and its effect on pharmacodynamic biomarkers including NE, PR3, and CatG in various rodent species” (Frontiers in Pharmacology, 2023)

Legend:
Format in all cases: in vivo
NE = assay: Bone marrow NE activity after repeated dosing, BALB/c mice; settings: for Reduction of NE activity vs vehicle / Change From Vehicle Control (%) NE: 7 days
Experimental: (§1) Briefly, animals were weighed and randomized into different treatment groups. In total, three different dosing levels of brensocatib were tested in each species and strain; each QD dosing level was equivalent to 1.5-times the matching daily BID dose. For BID dosing, the second daily dose was administered 8-h post the morning dose. C57BL/6 mice were dosed either BID or QD for 7 consecutive days at 0/0, 0.5/0.75, 2/3, and 20/30 mg/kg/day (BID/QD). BALB/c mice were dosed for 7 consecutive days at 0/0, 0.2/0.3, 2/3, and 20/30 mg/kg/day (BID/QD). SD rats were dosed for 9 consecutive days at 0/0, 0.2/0.3, 2/3, and 20/30 mg/kg/day (BID/QD). Wistar rats were dosed for 7 consecutive days at 0/0, 0.2/0.3, 2/3, and 20/30 mg/kg/day (BID/QD).
(§2) At the completion of the study, animals were sacrificed 16–24 h post their final dose. The hind limb bones (femurs and tibias) were collected at necropsy for bone marrow analysis of NSP activities by kinetic enzymatic assays ([Basso et al., 2022]). See section Quantification of Bone Marrow NSP Activities for details.
(§3) For the mice, each animal had the femurs and tibias of both hind limbs harvested. For the rat, the femur and tibia from a single hind limb per animal was harvested. Bones were kept on wet ice until processing for bone marrow collection. In brief, bone cutters were used to cut the epiphysis (knobby ends) off the long bones to expose the bone marrow filled cavity. Each bone cavity was then flushed with 5 mL/bone (mouse) or 10 mL/bone (rat) of ice-cold RPMI media through a […] and collected in a 50-mL conical tube. Cells were spun down at 2,500 × g at 4°C for 5 min and the supernatant was aspirated. After which, bone marrow cells were lysed with 1X red blood cell (RBC) lysis buffer (Abcam, ab204733) to eliminate contaminating RBCs and washed with PBS to remove any residual RBC lysis buffer. The resulting white blood cells (WBC) were subsequently lysed with 1% (v/v) Triton X-100 in PBS. Lysates were added to 96-well plates and stored at −80°C until NSP analyses.
(§4) Bone marrow lysates prepared as described above were diluted and plated onto 96-well assay plates to quantify NSP activities as described previously ([Basso et al., 2022]). Briefly, peptide substrates for NE (N-Methoxysuccinyl-Ala-Ala-Pro-Val-7-amido-4-methylcoumarin; Sigma; St. Louis, MO; Excitation/Emission at 350/450 nm), PR3 ((7-Methoxycoumarin-4-yl)acetyl-lysyl-(picolinoyl)-Tyr-Asp-Ala-Lys-Gly-Asp-N-3-(2-4-dinitrophenyl)-2-3-diaminopropyonyl-NH2); GenScript; Piscataway, NJ; Excitation/Emission at 340/430 nm), and CatG (N-Succinyl-Ala-Ala-Pro-Phe p nitroanilide; Sigma; Absorbance at 405 nm) were added at a final assay concentration of 100 μM, 40 μM, and 200 μM, respectively, and either fluorescence or absorbance was quantified using a Synergy microplate reader (BioTek; Winooski, VT). The specific NSP activity in each sample was calculated as the total activity minus the activity in the presence of a specific NSP inhibitor (if used), including elastase inhibitor (Abcam) for NE, sivelestat (Abcam) for PR3, and cathepsin G inhibitor I (Cayman Chemical; Ann Arbor, MI) for CatG. NSP concentrations were interpolated based on their activities relative to the standard curves created using active human NE protein (Sigma), active human PR3 protein (Sigma), and active human CatG protein (Sigma), respectively. Due to unavailability of commercial mouse and/or rat NE, PR3, and CatG proteins, the corresponding human proteins were used instead since their catalytic ability is considered to be conserved across species. A portion of each cell lysate sample was retained for protein quantification using a Pierce™ BCA Protein Assay Kit (Thermo Fisher). The NSP activities were normalized for the cell lysate protein concentrations.
(§5) The Pierce™ BCA Protein Assay Kit was used to measure the total protein of the samples after lysis to allow for subsequent normalization. […]

PR3 [1] = assay: Bone marrow PR3 activity after repeated dosing, BALB/c mice; settings: for Reduction of PR3 activity vs vehicle / Change From Vehicle Control (%) PR3: 7 days
Experimental: as §1, §2, §3, §4, §5

PR3 [2] = assay: PD recovery study, bone marrow PR3 activity, C57BL/6 mice; settings: for Percent change from vehicle PR3: bone marrow
Experimental: A PD recovery study was performed in female C57BL/6 mice dosed BID for 8 consecutive days. Mice were dosed by oral gavage either with vehicle (0 mg/kg) or 5 mg/kg brensocatib (BID; 10 mg/kg/day). After 8 consecutive days of dosing, the animals were maintained without further treatment until prescribed sacrifice (days: 1, 3, 6, 8, and 10 days post final dose). Plasma was collected from animals during the first 24 h of dosing at −0.5 (half-hour prior to dosing), 1, 8, 9, and 24 h post initial dose. Note that the 8- and 24-h plasma samples were prior to the afternoon dose and prior to the second day dose, respectively. Plasma was used for PK analysis via LC-MS/MS. On prescribed days, animals were sacrificed, and the hind limb bones (femurs and tibias) were collected at necropsy for bone marrow analysis of NSP activities by kinetic enzymatic assays.
as §3, §4
The Pierce™ BCA Protein Assay Kit was used to measure the total protein of the samples after lysis to allow for subsequent normalization. The manufacturer’s instructions for use were followed when performing this assay on a portion of the sample lysates which were diluted in PBS, the same diluent as used for preparation of the standard. Plates were read on the Biotek Synergy plate reader with Gen5 software.

NSPs (NE, PR3, CatG) = assay: PD onset study, bone marrow NSP activities (all three NSPs), C57BL/6 mice; settings: 5 mg/kg BID
Experimental: A 14-day PD onset study was performed in female C57BL/6 mice dosed BID. Mice were dosed by oral gavage either with vehicle (0 mg/kg) or 5 mg/kg brensocatib (BID; 10 mg/kg/day) for 1, 4, 7, 10, or 14 consecutive days. Plasma was collected from animals during the first 24 h of dosing at 1, 2, 8, 9, 10, and 24 h post the initial dose. Note the 8- and 24-h plasma samples were prior to the afternoon dose and the second day dose (if applicable), respectively. Plasma was used for PK analysis via LC-MS/MS. […]
Bone marrow lysates prepared as described above were diluted and plated onto 96-well assay plates to quantify NSP activities as described previously ([Basso et al., 2022]). Briefly, peptide substrates for NE (N-Methoxysuccinyl-Ala-Ala-Pro-Val-7-amido-4-methylcoumarin; Sigma; St. Louis, MO; Excitation/Emission at 350/450 nm), PR3 ((7-Methoxycoumarin-4-yl)acetyl-lysyl-(picolinoyl)-Tyr-Asp-Ala-Lys-Gly-Asp-N-3-(2-4-dinitrophenyl)-2-3-diaminopropyonyl-NH2); GenScript; Piscataway, NJ; Excitation/Emission at 340/430 nm), and CatG (N-Succinyl-Ala-Ala-Pro-Phe p nitroanilide; Sigma; Absorbance at 405 nm) were added at a final assay concentration of 100 μM, 40 μM, and 200 μM, respectively, and either fluorescence or absorbance was quantified using a Synergy microplate reader (BioTek; Winooski, VT). […]

[3] = BID highest dose (20 mg/kg/day)
[4] = highest dose level 20/30 (BID/QD) mg/kg/day
[5] = oral BID 0.2 mg/kg/day, 16 h post final dose
[6] = oral BID 2 mg/kg/day, 16 h post final dose
[7] = oral BID 20 mg/kg/day, 16 h post final dose
[8] = oral QD 0.3 mg/kg/day, 24 h post final dose
[9] = oral QD 3 mg/kg/day, 24 h post final dose
[10] = oral QD 30 mg/kg/day, 24 h post final dose
[11] = after 8 days of 5 mg/kg BID, curve fit with free min and max

Cn1c(=O)oc2ccc(-c3ccc(C[C@@H](C#N)NC(=O)[C@@H]4CNCCCO4)cc3)cc21 [brensocatib]
Reduction of NE activity vs vehicle (NE; [3]): 79%
Reduction of NE activity vs vehicle (NE; QD highest dose (30 mg/kg/day)): 46%
Combined BID and QD percentage reduction, NE (NE; [4]): 62%
Change From Vehicle Control (%) NE (NE; [5]): +26% (p = 0.4425)
Change From Vehicle Control (%) NE (NE; [6]): −23% (p = 0.5256)
Change From Vehicle Control (%) NE (NE; [7]): −79% (p = 0.0008)
Change From Vehicle Control (%) NE (NE; [8]): −3% (p = 0.9990)
Change From Vehicle Control (%) NE (NE; [9]): −16% (p = 0.8297)
Change From Vehicle Control (%) NE (NE; [10]): −46% (p = 0.0959)
Reduction of PR3 activity vs vehicle (PR3 [1]; [3]): 70%
Reduction of PR3 activity vs vehicle (PR3 [1]; QD highest dose (30 mg/kg/day)): 52%
Combined BID and QD percentage reduction, PR3 (PR3 [1]; [4]): 61%
Change From Vehicle Control (%) PR3 (PR3 [1]; [5]): +13% (p = 0.6435)
Change From Vehicle Control (%) PR3 (PR3 [1]; [6]): −26% (p = 0.1243)
Change From Vehicle Control (%) PR3 (PR3 [1]; [7]): −70% (p < 0.0001)
Change From Vehicle Control (%) PR3 (PR3 [1]; [8]): −7% (p = 0.9149)
Change From Vehicle Control (%) PR3 (PR3 [1]; [9]): −13% (p = 0.6769)
Change From Vehicle Control (%) PR3 (PR3 [1]; [10]): −52% (p = 0.0010)
Recovery: Time to reach 50% recovery, PR3 (PR3 [2]; [11]): 1.4 days
Recovery: Time to reach 90% recovery, PR3 (PR3 [2]; [11]): 5.2 days
Recovery: Time to reach 95% recovery, PR3 (PR3 [2]; [11]): 6.2 days
Recovery: Time to reach 100% recovery, PR3 (PR3 [2]; [11]): 7.5 days
Percent change from vehicle PR3 (PR3 [2]; 1 day recovery after 8 days of 5 mg/kg BID): −63% (p < 0.0001)
Percent change from vehicle PR3 (PR3 [2]; 3 days recovery after 8 days of 5 mg/kg BID): −28% (p = 0.0024)
Percent change from vehicle PR3 (PR3 [2]; 6 days recovery after 8 days of 5 mg/kg BID): −14% (p = 0.3753)
Percent change from vehicle PR3 (PR3 [2]; 8 days recovery after 8 days of 5 mg/kg BID): +5% (p = 0.9691)
Percent change from vehicle PR3 (PR3 [2]; 10 days recovery after 8 days of 5 mg/kg BID): +16% (p = 0.1549)
Time to maximum reduction in NSP activities (observed) (NSPs (NE, PR3, CatG); visually observed): ~7 days
Time to maximum reduction in NSP activities (with modeling) (NSPs (NE, PR3, CatG); with modeling): ~8 days
